Measured values: patent US6153415A, “Method for producing amide compounds using a nitrile hydratase from a thermophilic bacillus” (priority 1999, dated 2000)

How the values were obtained:
[1] = tested on: Bacillus sp. BR449; test: Effect of metal ions on growth (total cells) of BR449; format: cell-based; conditions: divalent metal salt 20 mg/l in growth medium
Description: (§1) Bacillus sp. BR449 (ATCC 202119) was grown in OP medium at pH 7.2 which contained per liter: KH2 PO4, 1 g; K2 HPO4, 0.5 g; yeast extract, 1 g; malt extract, 1 g; peptone 2 g; glycerol, 3 g; casamino acids, 0.1 g. The isolate was grown at 60° C. using turbidity to monitor culture density. Divalent metal salts were added to the growth medium where indicated in concentrations of 20 mg/l.

[2] = tested on: amidase; test: Effect of metal ions during growth on amidase activity of BR449; format: cell-based, Bacillus sp. BR449; conditions: BR449 grown with divalent metal salt 20 mg/l
Description: as §1
(§2) Nitrile hydratase activity was measured using whole cells in assays containing 20 mg (dry wt) cells, in 1 ml 0.5 M acrylonitrile and potassium phosphate buffer, containing 0.5 M acrylonitrile, pH 7.5. The reaction mixture was incubated in a water bath at 50° C. with shaking for 10 minutes, and the reaction stopped by addition of 0.2 ml 2 N HCl. Acrylamide formation was measured using HPLC by injection into a Novapak C-18 reverse phase column and eluted with 1:12 acetonitrile:5mM potassium phosphate buffer, pH 2.5. Peaks were identified at 200 nm with a Waters (Newton, Mass.) variable wavelength detector and analyzed with reference to chemical standards. One unit of nitrile hydratase activity is defined as the formation of one μmole acrylamide per minute. Amidase activity was measured in the same manner using 0.5 M acrylamide as substrate by measurement of acrylic acid formation.
(§3) Divalent metal ions were added during growth of isolate BR449 to provide indications of metals stimulatory to nitrile hydratase production.

[3] = molecular target: T1, BR449 nitrile hydratase (Bacillus sp. BR449, UniProt Q9L541+Q9L542); test: Effect of additions during growth on nitrile hydratase activity of BR449; format: cell-based; conditions: for Nitrile hydratase Specific Activity: BR449 grown with divalent metal salt 20 mg/l
T1 construct: alpha 214 aa, beta 229 aa
T1 sequence (Q9L541 1-214): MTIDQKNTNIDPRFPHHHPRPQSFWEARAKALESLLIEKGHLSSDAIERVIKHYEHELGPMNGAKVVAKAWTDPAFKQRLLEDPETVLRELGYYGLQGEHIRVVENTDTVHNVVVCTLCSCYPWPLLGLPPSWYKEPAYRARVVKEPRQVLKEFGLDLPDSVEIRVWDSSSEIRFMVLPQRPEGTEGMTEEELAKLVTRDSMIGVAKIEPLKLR
T1 sequence (Q9L542 1-229): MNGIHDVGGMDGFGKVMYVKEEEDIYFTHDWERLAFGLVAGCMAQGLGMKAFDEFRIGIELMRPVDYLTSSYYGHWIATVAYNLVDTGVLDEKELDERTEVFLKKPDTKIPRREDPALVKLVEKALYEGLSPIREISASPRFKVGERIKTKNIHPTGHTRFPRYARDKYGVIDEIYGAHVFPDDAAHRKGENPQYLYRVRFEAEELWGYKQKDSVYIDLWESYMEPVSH
Description: as §1, §2, §3

[4] = molecular target: T2, hydratase of BR449 (Bacillus sp. BR449, UniProt Q9L541+Q9L542); test: Nitrile hydratase activity with varied acrylonitrile concentration (substrate inhibition); format: biochemical; conditions: 10% acrylonitrile, assay at 50° C.
T2 construct: alpha 214 aa, beta 229 aa
T2 sequence (Q9L541 1-214): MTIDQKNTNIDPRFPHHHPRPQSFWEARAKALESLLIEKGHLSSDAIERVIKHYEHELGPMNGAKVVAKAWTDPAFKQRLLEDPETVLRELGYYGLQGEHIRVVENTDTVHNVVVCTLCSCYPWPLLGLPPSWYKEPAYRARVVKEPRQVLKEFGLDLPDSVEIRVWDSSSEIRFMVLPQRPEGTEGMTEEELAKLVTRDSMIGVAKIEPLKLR
T2 sequence (Q9L542 1-229): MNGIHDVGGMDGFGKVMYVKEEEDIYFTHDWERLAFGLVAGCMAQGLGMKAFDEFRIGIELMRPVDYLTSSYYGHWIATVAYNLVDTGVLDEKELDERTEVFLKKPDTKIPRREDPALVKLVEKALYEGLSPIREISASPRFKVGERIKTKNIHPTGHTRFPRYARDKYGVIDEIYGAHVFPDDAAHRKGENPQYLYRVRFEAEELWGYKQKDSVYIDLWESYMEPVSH
Description: as §2, with “Nitrile hydratase activity was measured using whole cells in assays containing 20 mg (dry wt) cells, in 1 ml 0.5 M acrylonitrile and potassium phosphate buffer, containing 0.5 M acrylonitrile, pH 7.5.” left out

[5] = Enzyme stability study, whole cells incubated in buffer at varied temperatures; format: physicochemical, Bacillus sp. BR449; conditions: two hour incubations in buffer, assay at 50° C.
Description: For studies of nitrile hydratase stability, whole cells of BR449 were incubated at varied temperatures in 50 mM potassium phosphate buffer, pH 7.5, following which the nitrile hydratase assay was carried out at 50° C.

Molecule | Total Cells [1] | Amidase Specific Activity [2] [U/mg] | Nitrile hydratase Specific Activity [3] [U/mg] | Induction of hydratase activity ([3]; addition during BR449 growth) | inhibition of BR449 hydratase (substrate inhibition) [4] [%] | temperature to which the enzyme is stable [5] [°C]
[Co+2] [Co^2+] | 225 mt/1, dry weight | 9.7 | 71.5 |  |  | 
[Cu+2] [Cu^2+] | 90 mt/1, dry weight | 1.5 | 1.9 |  |  | 
[Fe+2] [Fe^2+] | 490 mt/1, dry weight | 2.3 | 4.3 |  |  | 
[Mn+2] [Mn^2+] | 65 mt/1, dry weight | 2.1 | 2.2 |  |  | 
[Ni+2] [Ni^2+] | 80 mt/1, dry weight | 3.4 | 6.8 |  |  | 
C=CC#N [acrylonitrile] |  |  |  | without effect | 47 | 
BR449 nitrile hydratase: cobalt-containing nitrile hydratase of Bacillus sp. BR449, alpha subunit SEQ ID NO:9, beta subunit SEQ ID NO:11 (protein) alpha: MTIDQKNTNIDPRFPHHHPRPQSFWEARAKALESLLIEKGHLSSDAIERVIKHYEHELGPMNGAKVVAKAWTDPAFKQRLLEDPETVLRELGYYGLQGEHIRVVENTDTVHNVVVCTLCSCYPWPLLGLPPSWYKEPAYRARVVKEPRQVLKEFGLDLPDSVEIRVWDSSSEIRFMVLPQRPEGTEGMTEEELAKLVTRDSMIGVAKIEPLKLR beta: MNGIHDVGGMDGFGKVMYVKEEEDIYFTHDWERLAFGLVAGCMAQGLGMKAFDEFRIGIELMRPVDYLTSSYYGHWIATVAYNLVDTGVLDEKELDERTEVFLKKPDTKIPRREDPALVKLVEKALYEGLSPIREISASPRFKVGERIKTKNIHPTGHTRFPRYARDKYGVIDEIYGAHVFPDDAAHRKGENPQYLYRVRFEAEELWGYKQKDSVYIDLWESYMEPVSH |  |  |  |  |  | ≤ 60
